According to patent US20110112032A1, “Regulation of Brain Natriuretic Peptide and Catecholamines for the Treatment of Cardiovascular Diseases” (priority 2005, published 2011):
Values joined by “and” are separate entries in the source; they are usually repeats but may differ in a detail not shown here. Equal entries are not always repeated. Where two headings read alike, the source gives them in different places.

Legend:
[1] = test system: rat myocardial infarct model; assay type: in vivo
[2] = molecular target: norepinephrine transporter (Rattus norvegicus, UniProt Q63380); assay type: cell-based
[3] = animal group that received labetalol

Sequence of norepinephrine transporter (Q63380 1-617): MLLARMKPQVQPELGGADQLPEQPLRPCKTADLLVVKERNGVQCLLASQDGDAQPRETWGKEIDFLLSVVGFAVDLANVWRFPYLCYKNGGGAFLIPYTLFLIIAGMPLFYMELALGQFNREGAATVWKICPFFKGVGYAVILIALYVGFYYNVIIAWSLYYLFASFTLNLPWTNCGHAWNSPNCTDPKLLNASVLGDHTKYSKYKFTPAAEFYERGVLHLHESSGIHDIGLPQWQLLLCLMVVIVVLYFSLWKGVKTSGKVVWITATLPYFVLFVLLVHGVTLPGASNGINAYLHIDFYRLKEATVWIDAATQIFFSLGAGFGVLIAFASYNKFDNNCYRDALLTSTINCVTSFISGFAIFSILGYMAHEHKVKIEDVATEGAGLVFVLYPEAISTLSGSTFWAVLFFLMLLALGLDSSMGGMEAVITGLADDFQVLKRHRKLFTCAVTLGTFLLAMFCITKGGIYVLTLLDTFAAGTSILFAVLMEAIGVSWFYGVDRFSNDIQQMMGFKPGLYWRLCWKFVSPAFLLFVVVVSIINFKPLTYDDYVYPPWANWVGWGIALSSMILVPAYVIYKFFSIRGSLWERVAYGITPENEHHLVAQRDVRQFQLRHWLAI

[D-Pen^25]-enkephalin [DPDPE]
HR ([1]; rat, in vivo): 215 ± 1 bpm and 218 ± 1 bpm and 232 ± 1 bpm and 216 ± 1 bpm
Infarct Size ([1]; rat, in vivo): 6.6 ± 1.4 % of LV
Mean BP ([1]; rat, in vivo): 125 ± 1 mmHg and 116 ± 1 mmHg and 89 ± 2 mmHg and 96 ± 1 mmHg
infarct-size-limiting effect in rats pretreated with labetalol ([1]; rat, in vivo): nearly abolished
reduction of LV infarct size compared to control ([1]; rat, in vivo, iv): 53%

CNCCC(Oc1ccccc1OC)c1ccccc1 (stereo not shown) [nisoxetine]
reduction of [3H]norepinephrine uptake [2]: 36±4%

CC(CCc1ccccc1)NCC(O)c1ccc(O)c(C(N)=O)c1 (stereo not shown) [Labetalol, labetalol]
Infarct Size ([1]; N = 6, DPDPE 200 ng/kg iv 30 min before occlusion, labetalol 2 mg/kg iv): 16.2 ± 1.7 % of LV
change in heart rate [1, 3]: mild increase
change in mean blood pressure compared to the other groups [1, 3]: small reduction
HR ([1]; rat, in vivo): 213 ± 1 bpm and 223 ± 1 bpm and 244 ± 2 bpm and 235 ± 2 bpm
Mean BP ([1]; rat, in vivo): 125 ± 2 mmHg and 100 ± 2 mmHg and 78 ± 4 mmHg and 81 ± 4 mmHg

NC[C@H](O)c1ccc(O)c(O)c1 [norepinephrine]
inhibition of [3H] norepinephrine uptake [2]: 20%
reduction of [3H]norepinephrine uptake [2]: 20±5%
